The source of these data is ChEMBL document CHEMBL5291721, “A preclinical secondary pharmacology resource illuminates target-adverse drug reaction associations of marketed drugs” (Nat Commun, 2023).

The target of assay [1] is Sodium-dependent noradrenaline transporter (Homo sapiens, UniProt P23975).
The target in assay [2] is T1, Estrogen receptor (Homo sapiens, UniProt P03372).
T1 sequence (P03372 whole entry): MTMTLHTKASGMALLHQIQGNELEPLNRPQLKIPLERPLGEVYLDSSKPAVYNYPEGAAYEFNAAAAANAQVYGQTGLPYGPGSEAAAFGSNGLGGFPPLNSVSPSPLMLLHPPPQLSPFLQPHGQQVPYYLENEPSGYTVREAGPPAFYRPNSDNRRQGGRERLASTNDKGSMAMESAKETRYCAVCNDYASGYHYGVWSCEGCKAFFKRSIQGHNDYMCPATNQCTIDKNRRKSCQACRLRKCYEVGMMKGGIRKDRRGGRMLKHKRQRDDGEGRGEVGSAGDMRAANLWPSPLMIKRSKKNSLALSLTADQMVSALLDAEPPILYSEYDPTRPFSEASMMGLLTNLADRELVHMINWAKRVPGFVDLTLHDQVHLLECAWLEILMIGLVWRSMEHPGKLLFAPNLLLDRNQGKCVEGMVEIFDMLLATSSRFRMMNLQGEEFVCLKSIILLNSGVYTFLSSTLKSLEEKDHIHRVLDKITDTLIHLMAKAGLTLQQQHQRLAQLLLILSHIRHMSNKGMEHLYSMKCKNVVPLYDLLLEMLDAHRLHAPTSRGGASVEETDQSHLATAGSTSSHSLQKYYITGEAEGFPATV

Assay [3] concerns the target T2, Adenosine receptor A3 (Homo sapiens, UniProt P0DMS8).
T2 sequence (P0DMS8 whole entry): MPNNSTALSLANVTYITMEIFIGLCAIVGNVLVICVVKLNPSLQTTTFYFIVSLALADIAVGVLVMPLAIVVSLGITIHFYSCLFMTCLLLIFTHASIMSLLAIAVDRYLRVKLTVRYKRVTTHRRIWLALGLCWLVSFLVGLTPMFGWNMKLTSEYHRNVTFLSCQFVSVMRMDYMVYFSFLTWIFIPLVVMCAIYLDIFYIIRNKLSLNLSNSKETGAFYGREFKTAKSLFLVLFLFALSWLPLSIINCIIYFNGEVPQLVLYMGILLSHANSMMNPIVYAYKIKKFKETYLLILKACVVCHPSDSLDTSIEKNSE

For assay [4], the target named is Beta-2 adrenergic receptor (Homo sapiens, UniProt P07550).
Chain of Beta-2 adrenergic receptor (P07550 whole entry): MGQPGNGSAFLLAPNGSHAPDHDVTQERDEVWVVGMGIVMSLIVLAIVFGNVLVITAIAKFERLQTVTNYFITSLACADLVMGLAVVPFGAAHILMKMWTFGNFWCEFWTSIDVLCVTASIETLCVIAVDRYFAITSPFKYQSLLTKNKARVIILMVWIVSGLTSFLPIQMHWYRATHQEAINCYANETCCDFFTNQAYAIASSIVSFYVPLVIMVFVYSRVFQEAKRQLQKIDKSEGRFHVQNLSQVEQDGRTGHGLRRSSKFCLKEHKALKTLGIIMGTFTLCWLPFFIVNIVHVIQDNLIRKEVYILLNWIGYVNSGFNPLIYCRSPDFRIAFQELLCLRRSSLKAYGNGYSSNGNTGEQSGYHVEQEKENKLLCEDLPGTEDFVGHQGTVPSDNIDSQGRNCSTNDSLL
In assay [5] the target is Delta-type opioid receptor (Homo sapiens, UniProt P41143).
Chain of Delta-type opioid receptor (P41143 whole entry): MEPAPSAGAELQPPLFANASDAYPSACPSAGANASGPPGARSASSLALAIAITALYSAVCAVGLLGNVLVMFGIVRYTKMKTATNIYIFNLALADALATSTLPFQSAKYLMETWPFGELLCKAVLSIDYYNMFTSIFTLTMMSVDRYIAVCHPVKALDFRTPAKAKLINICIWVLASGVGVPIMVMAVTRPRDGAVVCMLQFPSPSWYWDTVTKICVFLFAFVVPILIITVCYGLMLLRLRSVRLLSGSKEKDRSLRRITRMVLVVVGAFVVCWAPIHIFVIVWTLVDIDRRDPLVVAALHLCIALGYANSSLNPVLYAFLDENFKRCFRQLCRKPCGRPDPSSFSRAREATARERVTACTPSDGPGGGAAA
Assay [6] has as its target T3, Alpha-2A adrenergic receptor (Homo sapiens, UniProt P08913).
T3 sequence (P08913 whole entry): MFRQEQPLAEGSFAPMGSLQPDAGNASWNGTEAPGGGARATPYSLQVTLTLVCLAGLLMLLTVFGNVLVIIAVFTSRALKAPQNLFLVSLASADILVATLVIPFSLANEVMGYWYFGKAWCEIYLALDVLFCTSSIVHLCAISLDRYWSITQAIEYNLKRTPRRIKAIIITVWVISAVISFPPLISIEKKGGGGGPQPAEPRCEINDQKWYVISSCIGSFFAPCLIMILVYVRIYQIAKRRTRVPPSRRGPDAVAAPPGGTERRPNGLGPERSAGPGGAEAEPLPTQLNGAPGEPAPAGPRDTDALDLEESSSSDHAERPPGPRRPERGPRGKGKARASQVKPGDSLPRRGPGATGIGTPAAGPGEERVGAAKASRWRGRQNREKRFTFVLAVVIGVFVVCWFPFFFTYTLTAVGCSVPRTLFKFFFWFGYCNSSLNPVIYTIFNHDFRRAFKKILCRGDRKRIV
Type of assay: functional, cell-based.

For assay [7], the target named is T4, Thromboxane A2 receptor (Homo sapiens, UniProt P21731).
T4 sequence (P21731 whole entry): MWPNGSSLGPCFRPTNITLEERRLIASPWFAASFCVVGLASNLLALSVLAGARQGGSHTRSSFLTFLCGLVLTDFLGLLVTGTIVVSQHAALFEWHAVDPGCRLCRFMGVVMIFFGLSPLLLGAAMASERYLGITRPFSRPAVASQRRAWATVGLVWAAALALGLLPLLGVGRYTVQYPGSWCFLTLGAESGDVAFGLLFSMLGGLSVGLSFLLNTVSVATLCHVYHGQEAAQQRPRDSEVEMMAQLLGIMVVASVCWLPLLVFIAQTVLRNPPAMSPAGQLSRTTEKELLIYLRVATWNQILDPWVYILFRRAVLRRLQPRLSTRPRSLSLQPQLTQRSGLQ

Assay [8] has as its target Motilin receptor (Homo sapiens, UniProt O43193).
The target in assay [9] is 3',5'-cyclic-AMP phosphodiesterase 4D (Homo sapiens, UniProt Q08499). Type of assay: functional.
Chain of 3',5'-cyclic-AMP phosphodiesterase 4D (Q08499 whole entry): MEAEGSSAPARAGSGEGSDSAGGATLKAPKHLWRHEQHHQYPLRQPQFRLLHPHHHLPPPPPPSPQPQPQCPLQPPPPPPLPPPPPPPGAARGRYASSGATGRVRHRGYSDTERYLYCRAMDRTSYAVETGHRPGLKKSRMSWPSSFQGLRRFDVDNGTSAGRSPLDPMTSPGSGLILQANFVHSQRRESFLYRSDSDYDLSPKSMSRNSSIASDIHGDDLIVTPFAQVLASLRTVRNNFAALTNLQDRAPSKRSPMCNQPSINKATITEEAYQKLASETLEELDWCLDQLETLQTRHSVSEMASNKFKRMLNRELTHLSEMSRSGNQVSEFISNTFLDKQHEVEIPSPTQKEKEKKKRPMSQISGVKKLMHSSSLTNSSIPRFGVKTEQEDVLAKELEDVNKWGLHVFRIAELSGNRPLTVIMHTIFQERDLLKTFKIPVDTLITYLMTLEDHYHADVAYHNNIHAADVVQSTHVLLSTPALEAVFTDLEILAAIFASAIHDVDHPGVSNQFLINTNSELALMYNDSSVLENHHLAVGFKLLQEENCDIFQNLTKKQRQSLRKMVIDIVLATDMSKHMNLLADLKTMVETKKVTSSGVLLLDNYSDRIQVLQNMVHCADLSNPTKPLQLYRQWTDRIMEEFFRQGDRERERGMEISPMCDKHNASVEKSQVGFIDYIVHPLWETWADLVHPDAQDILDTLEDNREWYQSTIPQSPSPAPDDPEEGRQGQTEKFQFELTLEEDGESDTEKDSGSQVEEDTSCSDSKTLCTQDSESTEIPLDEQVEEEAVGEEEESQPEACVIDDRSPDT
The target in assay [10] is Melanocortin receptor 3 (Homo sapiens, UniProt P41968).
Chain of Melanocortin receptor 3 (P41968 whole entry): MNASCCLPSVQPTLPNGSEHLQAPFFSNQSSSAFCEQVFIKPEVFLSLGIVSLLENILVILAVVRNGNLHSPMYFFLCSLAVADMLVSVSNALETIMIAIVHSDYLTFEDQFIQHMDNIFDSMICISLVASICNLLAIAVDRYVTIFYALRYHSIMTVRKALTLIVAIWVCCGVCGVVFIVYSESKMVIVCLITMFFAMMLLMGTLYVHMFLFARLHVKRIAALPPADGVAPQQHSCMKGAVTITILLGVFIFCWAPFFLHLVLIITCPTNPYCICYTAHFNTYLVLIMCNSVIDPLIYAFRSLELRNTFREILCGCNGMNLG
In assay [11] the target is T5, Endothelin-1 receptor (Homo sapiens, UniProt P25101).
T5 sequence (P25101 whole entry): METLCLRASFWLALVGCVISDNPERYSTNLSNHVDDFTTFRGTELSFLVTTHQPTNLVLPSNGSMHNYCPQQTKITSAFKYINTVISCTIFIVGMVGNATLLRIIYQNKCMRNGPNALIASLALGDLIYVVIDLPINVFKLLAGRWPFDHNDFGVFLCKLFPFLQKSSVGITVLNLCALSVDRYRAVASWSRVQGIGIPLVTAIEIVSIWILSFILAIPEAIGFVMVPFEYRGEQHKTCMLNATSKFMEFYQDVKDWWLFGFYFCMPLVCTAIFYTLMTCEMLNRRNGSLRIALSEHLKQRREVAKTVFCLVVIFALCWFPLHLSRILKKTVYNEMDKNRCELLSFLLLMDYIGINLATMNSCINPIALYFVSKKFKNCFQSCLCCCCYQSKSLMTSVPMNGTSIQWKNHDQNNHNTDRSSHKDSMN

The target of assay [12] is T6, 5-hydroxytryptamine receptor 1A (Homo sapiens, UniProt P08908).
T6 sequence (P08908 whole entry): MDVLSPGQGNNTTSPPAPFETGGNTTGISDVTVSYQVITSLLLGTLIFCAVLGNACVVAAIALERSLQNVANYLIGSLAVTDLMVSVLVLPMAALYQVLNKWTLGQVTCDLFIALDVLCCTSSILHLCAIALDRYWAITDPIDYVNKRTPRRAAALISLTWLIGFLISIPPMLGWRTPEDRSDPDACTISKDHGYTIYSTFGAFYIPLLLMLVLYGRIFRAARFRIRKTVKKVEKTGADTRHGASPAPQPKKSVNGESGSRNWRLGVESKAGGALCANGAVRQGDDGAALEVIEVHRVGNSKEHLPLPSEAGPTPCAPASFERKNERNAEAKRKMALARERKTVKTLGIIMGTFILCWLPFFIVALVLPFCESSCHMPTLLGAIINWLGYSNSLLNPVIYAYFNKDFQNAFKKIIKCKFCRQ
The class given is functional, cell-based.

Each structure is given as a SMILES string.
Note: assay procedure not described here.

Chain of Sodium-dependent noradrenaline transporter (P23975 whole entry): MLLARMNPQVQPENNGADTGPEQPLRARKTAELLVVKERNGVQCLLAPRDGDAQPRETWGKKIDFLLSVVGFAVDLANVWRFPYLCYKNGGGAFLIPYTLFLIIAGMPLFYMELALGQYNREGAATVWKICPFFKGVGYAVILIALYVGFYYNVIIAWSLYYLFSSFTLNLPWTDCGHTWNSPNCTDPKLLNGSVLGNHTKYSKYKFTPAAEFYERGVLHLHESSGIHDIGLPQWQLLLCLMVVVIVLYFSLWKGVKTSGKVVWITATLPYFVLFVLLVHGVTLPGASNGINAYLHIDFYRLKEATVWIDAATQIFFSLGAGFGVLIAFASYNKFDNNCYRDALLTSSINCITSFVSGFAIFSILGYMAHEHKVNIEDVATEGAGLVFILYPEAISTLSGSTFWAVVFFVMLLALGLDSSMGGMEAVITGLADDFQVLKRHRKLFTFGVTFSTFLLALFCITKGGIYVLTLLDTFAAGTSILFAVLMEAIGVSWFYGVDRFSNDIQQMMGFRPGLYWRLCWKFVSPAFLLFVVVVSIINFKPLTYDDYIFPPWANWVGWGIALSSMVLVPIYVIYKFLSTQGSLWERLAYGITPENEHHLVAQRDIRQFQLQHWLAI
Chain of Motilin receptor (O43193 whole entry): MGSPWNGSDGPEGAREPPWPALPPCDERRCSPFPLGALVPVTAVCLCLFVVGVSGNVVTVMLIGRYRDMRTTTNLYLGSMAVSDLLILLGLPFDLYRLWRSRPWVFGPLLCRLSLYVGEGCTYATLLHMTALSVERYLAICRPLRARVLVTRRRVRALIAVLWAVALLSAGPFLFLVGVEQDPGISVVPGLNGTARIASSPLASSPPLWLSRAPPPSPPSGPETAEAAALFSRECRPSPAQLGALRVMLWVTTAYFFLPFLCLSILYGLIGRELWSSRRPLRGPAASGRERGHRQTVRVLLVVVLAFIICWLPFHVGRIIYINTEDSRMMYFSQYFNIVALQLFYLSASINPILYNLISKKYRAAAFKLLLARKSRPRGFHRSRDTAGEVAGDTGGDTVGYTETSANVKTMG

Broadly, the AC50 is the concentration giving half of the maximal activity seen. A higher AC50 goes with weaker potency. Take `CC(=O)OCC(=O)[C@@]1(O)CC[C@H]2[C@@H]3CCC4=CC(=O)CC[C@]4(C)C3=CC[C@@]21C` [ANECORTAVE ACETATE]: the AC50 is over 10 µM in assay [1]; over 30 µM in assay [2]; over 10 µM in assay [3]; over 10 µM in assay [4]; over 30 µM in assay [5]; over 10 µM in [6]. The AC50 in assay [7] is over 10 µM; in assay [8], over 10 µM; in assay [9], over 30 µM; in assay [10] it was over 10 µM.

Regarding `CS(=O)(=O)OCCCCOS(C)(=O)=O` [BUSULFAN], the AC50 in assay [1], in assay [2], in [11], in assay [3], in assay [12] and in [5] was over 30 µM throughout. The AC50 in [6], in assay [8], in assay [9] and in assay [10] was over 30 µM throughout.

`CCCCC1(CC)C(=O)NC(=O)NC1=O` [BUTETHAL]: the AC50 in assay [1], in [2], in [11], in assay [3], in assay [12] and in assay [5] was over 30 µM in each case. For the same compound, the AC50 in assay [6], in [8], in assay [9] and in assay [10] was over 30 µM each time.

Turning to `CO[C@@]1(NC(=O)Cc2cccs2)C(=O)N2C(C(=O)O)=C(COC(N)=O)CS[C@@H]21` [CEFOXITIN], the AC50 in assay [1], in assay [2], in [11], in assay [3], in assay [12] and in [5] was over 30 µM throughout. Besides, the AC50 in assay [6], in assay [8], in assay [9] and in assay [10] was over 30 µM throughout.

As for `CCN(CC)CCOC(=O)c1ccc(N)cc1Cl` [CHLOROPROCAINE], the AC50 in [1], in [2], in [11], in [3], in [12] and in assay [5] was over 30 µM each time. The AC50 in [6], in assay [8], in assay [9] and in assay [10] was over 30 µM in each case.

For the compound `O=C(O)c1ccccc1OP(=O)(O)O` [FOSFOSAL], the AC50 in assay [1], in [2], in [11], in assay [3], in assay [12] and in [5] was over 30 µM each time. Moreover, the AC50 in assay [6], in [8], in assay [9] and in assay [10] was over 30 µM in each case.

For `CCCC[C@H](C)C[C@H](O)/C=C/[C@H]1[C@H](O)CC(=O)[C@@H]1CCCC/C=C/C(=O)O` [LIMAPROST], the concentration at half-maximal activity (AC50) in assay [1], in assay [2], in assay [11], in assay [3], in assay [12] and in assay [5] was over 30 µM throughout. The AC50 in assay [6], in [8], in assay [9] and in assay [10] was over 30 µM each time.

Take `Cc1ccc(NC(=O)C2(c3ccc4c(c3)OC(F)(F)O4)CC2)nc1-c1cccc(C(=O)O)c1` [LUMACAFTOR]: the AC50 in assay [1] is over 30 µM; in assay [2], over 30 µM; in assay [11], over 30 µM; in assay [3] it was 15 µM; in [12] it was over 30 µM; in assay [5], over 30 µM. The AC50 in assay [6] was over 30 µM; in assay [8], over 30 µM; in assay [9] it was 15 µM; in [10] it was over 30 µM.

As to `CCOC(=O)Nc1ccc2c(c1)N(C(=O)CCN1CCOCC1)c1ccccc1S2` [MORICIZINE], the concentration at half-maximal activity (AC50) in [1], in assay [2], in assay [11], in [3], in assay [5] and in assay [6] was over 30 µM throughout. Also, the values for the concentration at half-maximal activity (AC50) in assay [8], in assay [9] and in assay [10] were over 30 µM, 0.77 µM and over 30 µM, respectively.

As for `CCn1cc(C(=O)O)c(=O)c2cc(F)c(N3CCN(C)CC3)cc21` [PEFLOXACIN], the AC50 in assay [1], in assay [2], in assay [11], in assay [3], in assay [12] and in assay [5] was over 30 µM throughout. Further, the AC50 in [6], in assay [8], in [9] and in [10] was over 30 µM in each case.

Regarding `CCCNC(C)C(=O)Nc1ccccc1C` (stereo not drawn) [PRILOCAINE], the AC50 in assay [1], in assay [2], in assay [11], in assay [3], in [12] and in assay [5] was over 30 µM throughout. The AC50 in assay [6], in assay [8], in assay [9] and in assay [10] was over 30 µM each time.

Take `COc1cc2c(Nc3ccc(Br)cc3F)ncnc2cc1OCC1CCN(C)CC1` [VANDETANIB]: the AC50 in [1] is over 30 µM; in assay [2], over 30 µM; in assay [11], over 30 µM; in assay [3] it was 23 µM; in assay [5], over 30 µM; in [6] it was over 30 µM. Besides, the AC50 in assay [8], in assay [9] and in [10] was over 30 µM in each case.
